Reference: patent publication US9274101B2 (BIOLOG, Inc., priority 2001, dated 2016)

Key:
HL-60 cells [1] = assay: Effect of 10 mM citric acid on HL-60 energy utilization; format: cell-based, human; settings: negative control without energy sources and without citric acid
E. coli MG1655 = format: cell-based, Escherichia coli
[2] = test system: Undifferentiated HL-60 cells; assay: Energy use by undifferentiated HL-60 cells; format: cell-based, human; settings: Homo sapiens, HL-60, 24 h, read-out: Energy Use by Undifferentiated HL-60 Cells
HL-60 cells [3] = assay: HL-60 responses to selected compounds at a range of concentrations; format: cell-based, human; settings: Homo sapiens, HL-60, read-out: HL-60 Cell Responses to Selected Compounds from PM1 and PM2
In short: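 Washed HL-60 cells (5×10^4/well) in DME-R were exposed to test energy sources at final 0.033 to 20 mM for 24 h at 37 °C, then MTS/MPMS was added for a further 24 h. OD490 (ref 650 nm) was corrected with cell-free control plates and normalized to % of no-energy-source control.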

[4] = test system: DMSO-differentiated HL-60 cells; assay: Energy use by DMSO-differentiated HL-60 cells; format: cell-based, human
In short: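 HL-60 cells, […] differentiated with 1.25% DMSO for 3 days, were plated at 5×10^4/well in DME-R with test energy sources at 0.033–20 mM final for 24 h at 37 °C. Viability was measured by MTS/PMS at 490 nm (ref 650 nm) 24 h after reagent addition. Values were background-subtracted using cell-free plates and expressed as % of the no-energy-source control.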

SMILES: Cc1cn([C@H]2C[C@H](O)[C@@H](CO)O2)c(=O)[nH]c1=O [Thymidine]
- Effect of 10 mM Citric Acid on HL-60 Energy Utilization (HL-60 cells [1]; energy source 0.03 mM with 10 mM citric acid): 5.2 % of negative control
- Effect of 10 mM Citric Acid on HL-60 Energy Utilization (HL-60 cells [1]; energy source 0.10 mM with 10 mM citric acid): 18.9 % of negative control
- Effect of 10 mM Citric Acid on HL-60 Energy Utilization (HL-60 cells [1]; energy source 0.33 mM with 10 mM citric acid): 12.4 % of negative control
- Effect of 10 mM Citric Acid on HL-60 Energy Utilization (HL-60 cells [1]; energy source 1.00 mM with 10 mM citric acid): 22.1 % of negative control
- Effect of 10 mM Citric Acid on HL-60 Energy Utilization (HL-60 cells [1]; energy source 3.3 mM with 10 mM citric acid): 27.9 % of negative control
- Effect of 10 mM Citric Acid on HL-60 Energy Utilization (HL-60 cells [1]; energy source 10 mM with 10 mM citric acid): 31.0 % of negative control
- Effect of 10 mM Citric Acid on HL-60 Energy Utilization (HL-60 cells [1]; energy source 15 mM with 10 mM citric acid): 20.9 % of negative control
- Effect of 10 mM Citric Acid on HL-60 Energy Utilization (HL-60 cells [1]; energy source 20 mM with 10 mM citric acid): 64.8 % of negative control
- suitability as nitrogen source (growth, purple color) (E. coli MG1655): not suitable
- activity at 30 µM ([2]; Conc. 0.03 mM): 84.1%
- activity at 100 µM ([2]; Conc. 0.10 mM): 106%
- activity at 330 µM ([2]; Conc. 0.33 mM): 101%
- activity at 1000 µM ([2]; Conc. 1.00 mM): 90.9%
- activity at 3300 µM ([2]; Conc. 3.3 mM): 111%
- activity at 10000 µM ([2]; Conc. 10 mM): 80.3%
- activity at 15000 µM ([2]; Conc. 15 mM): 81.3%
- activity at 20000 µM ([2]; Conc. 20 mM): 52.3%
- activity at 30 µM (HL-60 cells [3]; Conc. 0.03 mM): 121%
- activity at 100 µM (HL-60 cells [3]; Conc. 0.10 mM): 125%
- activity at 330 µM (HL-60 cells [3]; Conc. 0.33 mM): 128%
- activity at 1000 µM (HL-60 cells [3]; Conc. 1.00 mM): 134%
- activity at 3300 µM (HL-60 cells [3]; Conc. 3.3 mM): 129%
- activity at 10000 µM (HL-60 cells [3]; Conc. 10 mM): 106%
- activity at 15000 µM (HL-60 cells [3]; Conc. 15 mM): 91.5%
- activity at 20000 µM (HL-60 cells [3]; Conc. 20 mM): 68.5%
- energy source use in words ([4]; DMSO-differentiated HL-60 cells): able to utilize thymidine at concentrations of 0.1-15 mM
- activity at 30 µM ([4]; Homo sapiens, HL-60, 24 h, Conc. 0.03 mM, read-out: Energy Use by DMSO-Differentiated HL-60 Cells): 96%
- activity at 100 µM ([4]; Homo sapiens, HL-60, 24 h, Conc. 0.10 mM, read-out: Energy Use by DMSO-Differentiated HL-60 Cells): 112%
- activity at 330 µM ([4]; Homo sapiens, HL-60, 24 h, Conc. 0.33 mM, read-out: Energy Use by DMSO-Differentiated HL-60 Cells): 143%
- activity at 1000 µM ([4]; Homo sapiens, HL-60, 24 h, Conc. 1.00 mM, read-out: Energy Use by DMSO-Differentiated HL-60 Cells): 165%
- activity at 3300 µM ([4]; Homo sapiens, HL-60, 24 h, Conc. 3.3 mM, read-out: Energy Use by DMSO-Differentiated HL-60 Cells): 173%
- activity at 10000 µM ([4]; Homo sapiens, HL-60, 24 h, Conc. 10 mM, read-out: Energy Use by DMSO-Differentiated HL-60 Cells): 160%
- activity at 15000 µM ([4]; Homo sapiens, HL-60, 24 h, Conc. 15 mM, read-out: Energy Use by DMSO-Differentiated HL-60 Cells): 160%
- activity at 20000 µM ([4]; Homo sapiens, HL-60, 24 h, Conc. 20 mM, read-out: Energy Use by DMSO-Differentiated HL-60 Cells): 103%
